We go through 5 compounds from publication PMC5051719, “Fourth-Generation Progestins Inhibit 3β-Hydroxysteroid Dehydrogenase Type 2 and Modulate the Biosynthesis of Endogenous Steroids” (PLoS ONE, 2016).

Like-named read-outs stand apart in the source and are kept apart here.

What all share (type): cell-based
Experiment [1] has as its target T1, cytochrome P450 17α-hydroxylase/17,20 lyase (CYP17A1) (Homo sapiens, UniProt P05093).
T1 construct: pIRES-hCYP17A1-V5-X-hCYPB5-6HIS expressed in COS-1 cells
The experiment in a line: progesterone conversion in transfected COS-1 cells with […] inhibitor, UPLC-MS/MS.

Experiment [2] deals with T2, 3β-hydroxysteroid dehydrogenase type 2 (3βHSD2) (Homo sapiens, UniProt P26439).
T2 construct: gene HSD3B2
T2 sequence (P26439 1-372): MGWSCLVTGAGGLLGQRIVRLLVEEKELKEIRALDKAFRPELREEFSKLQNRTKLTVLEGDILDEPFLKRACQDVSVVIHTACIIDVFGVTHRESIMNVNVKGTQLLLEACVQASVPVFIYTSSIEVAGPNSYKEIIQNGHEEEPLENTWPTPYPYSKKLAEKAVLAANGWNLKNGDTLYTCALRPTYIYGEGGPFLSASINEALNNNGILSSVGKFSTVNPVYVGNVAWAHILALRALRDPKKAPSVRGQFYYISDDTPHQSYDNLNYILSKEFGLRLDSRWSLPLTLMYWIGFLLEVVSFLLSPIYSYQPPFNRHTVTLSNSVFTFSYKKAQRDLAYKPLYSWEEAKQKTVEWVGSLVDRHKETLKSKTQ
The experiment in a line: pregnenolone to progesterone conversion kinetics in transfected COS-1 cells, UPLC-MS/MS.

The target of experiment [3] is T2, 3β-hydroxysteroid dehydrogenase type 2 (3βHSD2). Nature of the experiment: Michaelis-Menten kinetics of conversion to progesterone in transfected COS-1 cells (Km), UPLC-MS/MS.

T1 sequence (P05093 whole entry): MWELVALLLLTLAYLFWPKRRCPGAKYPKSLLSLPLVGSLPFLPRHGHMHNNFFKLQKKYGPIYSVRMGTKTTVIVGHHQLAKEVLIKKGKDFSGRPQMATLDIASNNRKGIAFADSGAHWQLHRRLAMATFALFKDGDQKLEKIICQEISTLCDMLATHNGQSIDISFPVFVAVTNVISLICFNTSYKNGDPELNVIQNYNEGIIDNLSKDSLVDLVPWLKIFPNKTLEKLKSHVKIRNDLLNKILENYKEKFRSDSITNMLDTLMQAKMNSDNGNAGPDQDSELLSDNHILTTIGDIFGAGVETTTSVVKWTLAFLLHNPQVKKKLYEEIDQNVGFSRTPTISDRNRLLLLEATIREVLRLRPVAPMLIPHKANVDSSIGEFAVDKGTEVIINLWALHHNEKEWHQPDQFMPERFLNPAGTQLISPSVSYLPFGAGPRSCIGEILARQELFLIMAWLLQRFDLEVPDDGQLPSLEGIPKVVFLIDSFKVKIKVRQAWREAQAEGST
T1 sequence (P00167 2-134, further chain): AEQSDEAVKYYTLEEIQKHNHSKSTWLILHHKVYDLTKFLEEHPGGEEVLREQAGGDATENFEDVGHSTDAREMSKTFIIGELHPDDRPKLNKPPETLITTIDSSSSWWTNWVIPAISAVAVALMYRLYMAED

In experiment [1], `C[C@]12CCC(=O)C=C1[C@@H]1C[C@@H]1[C@H]1[C@@H]3[C@@H]4C[C@@H]4[C@@]4(CCC(=O)O4)[C@@]3(C)CC[C@@H]12` [DRSP, drospirenone] returned an inhibition at 1 µM of 55.2 ± 16.5%. Moreover, in experiment [2] (read-out: Ki), the Ki came to 0.232 ± 0.038 µM.
Turning to `C=C1C[C@H]2[C@@H]3CCC4=CC(=O)CCC4[C@H]3CC[C@]2(C)C1(OC(C)=O)C(C)=O` (stereo partly drawn) [NES, nestorone], the inhibition constant Ki in experiment [2] (read-out: Ki) came to 0.0095 ± 0.00096 µM.
In turn, `C[C@]12CC[C@H]3[C@@H](CC[C@@]45O[C@@H]4C(O)=C(C#N)C[C@]35C)[C@@H]1CC[C@@H]2O` [trilostane, reference compound] gave a Ki in experiment [2] of 0.0313 ± 0.0055 µM.
Regarding `CC(=O)O[C@]1(C(C)=O)CC[C@H]2[C@@H]3C=C(C)C4=CC(=O)CC[C@@H]4[C@H]3CC[C@@]21C` [NoMAC, nomegestrol acetate], the Ki in experiment [2] (read-out: Ki) amounted to 0.029 ± 0.0071 µM.
For the compound `CC(=O)[C@H]1CC[C@H]2[C@@H]3CC=C4C[C@@H](O)CC[C@]4(C)[C@H]3CC[C@]12C` [Preg, pregnenolone], in experiment [3], the Michaelis-Menten constant (Km) is 0.85 ± 0.05 µM.

The inhibition is the relative decrease from the control value, in per cent. The Ki is a dissociation constant, usually derived from enzyme kinetics or from competition with a known ligand. As a reminder, the Km is the concentration of substrate that gives half-maximal velocity.
